The text below walks through data of US20200038410A1, “METHODS FOR TREATING NEUROPATHY” (Loyola University Chicago, priority 2018, published 2020).

Assay [1] deals with LXRs in organotypic cultures of DRG. The experiment in a line: LXR target gene expression (ABCA1) in organotypic cultures of DRG. In kind it is cell-based, mice. The following applies: organotypic cultures of DRG stimulated with GW3965; FIG. 1B. From the text:
FIG. 1A is a chart representing distribution of nuclear receptor mRNA in the whole DRG. Normalized mRNA expression levels were defined as Absent if the Ct value was greater than 40, Low if the level was […] arbitrary units, Moderate if the level was between 0.025 and 0.25, and High if the level was greater than 0.25 arbitrary units. […] FIGS. 1D and 1F represent data of protein levels of CHOP, an ER stress marker, in DRG of mice fed western diet (WD) compared to normal chow (NC) (FIG. 1D, n=10 DRG/group), and in ex vivo organotypic whole DRG cultures treated with palmitate and LXR agonist (FIG. 1F, n=individual experiments in triplicate). FIGS. 1C, 1E, and 1G represent data of mRNA levels of ER stress markers using 18S to normalize, in DRG of WD and NC fed mice (FIG. 1C, n=4 mice/group), in organotypic whole DRG cultures (FIG. 1E), and in primary neuronal culture of DRG neurons treated with LXR agonist and palmitate (FIG. 1G, n=5 individual experiments). (All values are Mean±S.E.M, with vehicle group defined as 100%; *p<0.05 with vehicle; **p<0.05 with vehicle+palmitate). […]

Assay [2] concerns organotypic DRG cultures. Put plainly: Palmitate-induced ER stress markers (mRNA) in organotypic whole DRG cultures. Type of assay: cell-based, mice. As to conditions: palmitate treated organotypic DRG cultures, compared to vehicle; FIG. 1E. The text has this: (§1) FIG. 1A is a chart representing distribution of nuclear receptor mRNA in the whole DRG. Normalized mRNA expression levels were defined as Absent if the Ct value was greater than 40, Low if the level was […] arbitrary units, Moderate if the level was between 0.025 and 0.25, and High if the level was greater than 0.25 arbitrary units. […] FIGS. 1D and 1F represent data of protein levels of CHOP, an ER stress marker, in DRG of mice fed western diet (WD) compared to normal chow (NC) (FIG. 1D, n=10 DRG/group), and in ex vivo organotypic whole DRG cultures treated with palmitate and LXR agonist (FIG. 1F, n=individual experiments in triplicate). FIGS. 1C, 1E, and 1G represent data of mRNA levels of ER stress markers using 18S to normalize, in DRG of WD and NC fed mice (FIG. 1C, n=4 mice/group), in organotypic whole DRG cultures (FIG. 1E), and in primary neuronal culture of DRG neurons treated with LXR agonist and palmitate (FIG. 1G, n=5 individual experiments). (All values are Mean±S.E.M, with vehicle group defined as 100%; *p<0.05 with vehicle; **p<0.05 with vehicle+palmitate).
ER stress has been identified as a potential culprit underlying type 1 and type 2 diabetes. Increased expression of the ER stress marker CHOP was reported in metabolic tissues of diabetic mice, while targeted disruption of CHOP gene delayed the onset of diabetes. […]

Assay [3] concerns DRG primary neuronal cultures. Put plainly: Palmitate-induced ER stress markers and lpcat3 mRNA in DRG primary neuronal cultures. Type of assay: cell-based, mice. The following applies: DRG neurons stimulated by LXR agonist; FIG. 1G.
Description: as §1
Previous research has shown that LXRs could be involved in the regulation of organelles/membrane phospholipid composition by regulating the expression of LPCAT3 (lysophospholipid acyltransferase).

Assay [4] relates to WD-fed mice. The experiment in a line: Western diet-induced allodynia, von Frey test. In kind it is in vivo. As to conditions: 25 mg/kg i.p. twice a week for three weeks after eight weeks of WD, compared to WD vehicle, FIG. 2A. The text has this:
End point levels of serum triglycerides (FIG. 2B), cholesterol (FIG. 2C), in mice fed NC or WD treated with agonist. FIG. 2D represents mRNA levels of ER stress markers normalized to 18S in DRG of NC or WD-fed mice treated with LXR agonist. (n=4 mice/group; all values are Mean±S.E.M; for mRNA relative levels were plotted with NC-vehicle group defined as 100%; *p<0.05 with NC-Veh; **p<0.05 with WD-Veh). The mechanical hypersensitivity observed early in peripheral neuropathy is believed to be associated with metabolic syndrome and independent of diabetes. […] The von Frey test was performed and measured phasic response frequency to calculate the 50% threshold in WD and NC-fed mice. […] The above data linking LXR and ER stress in DRG led the inventors to assess whether activation of LXRs could change the WD-induced allodynia. WT mice were fed either NC or WD for a total of twelve weeks after weaning, while assessing the onset and progression of allodynia. […] Weight-matched mice on either diet were treated for three weeks with either GW3965 (25 mg/kg body weight; twice a week by i.p.) or vehicle after eight weeks of WD diet (twelve weeks of age). […] Sensitivity of mice to innocuous stimuli was evaluated over the duration of GW3965 treatment. […]

The test system of assay [5] is DRG of WD-fed mice. Put plainly: ER stress marker (UPR target gene) mRNA in DRG of WD-fed mice treated with agonist. In kind it is in vivo. As to conditions: 25 mg/kg i.p. twice a week for three weeks, FIG. 2D. The text has this: End point levels of serum triglycerides (FIG. 2B), cholesterol (FIG. 2C), in mice fed NC or WD treated with agonist. FIG. 2D represents mRNA levels of ER stress markers normalized to 18S in DRG of NC or WD-fed mice treated with LXR agonist. (n=4 mice/group; all values are Mean±S.E.M; for mRNA relative levels were plotted with NC-vehicle group defined as 100%; *p<0.05 with NC-Veh; **p<0.05 with WD-Veh). The above data linking LXR and ER stress in DRG led the inventors to assess whether activation of LXRs could change the WD-induced allodynia. WT mice were fed either NC or WD for a total of twelve weeks after weaning, while assessing the onset and progression of allodynia. […] Weight-matched mice on either diet were treated for three weeks with either GW3965 (25 mg/kg body weight; twice a week by i.p.) or vehicle after eight weeks of WD diet (twelve weeks of age). As activation of LXRs elevated triglyceride levels in liver and plasma, the dosage of LXR agonist was adjusted to minimize the increase of triglyceride and cholesterol (FIGS. 2B and 2C). Sensitivity of mice to innocuous stimuli was evaluated over the duration of GW3965 treatment. […] Then, the expression of UPR target genes in DRG of NC- or WD-fed mice treated with vehicle or GW3965 was compared.

For assay [6], the system named is Nav1.8 expressing neurons of the DRG. The experiment in a line: ER stress marker mRNA in Nav1.8 expressing sensory neurons (RiboTag IP) of DRG organotypic cultures treated with palmitate. Type of assay: cell-based, mice. The following applies: Nav1.8 sensory neuron specific mRNA from DRG organotypic cultures, FIG. 3F. From the text:
FIGS. 3A through 3F include charts and images representing that an LXR agonist decreased lipid-induced ER stress in DRG neurons expressing Nav1.8. […] FIG. 3B represents the generation of tissue specific RiboTag mouse. Sensory neuron specific (Nav1.8) Cre mice were utilized to generate Ribotag-Nav1.8-Cre mice. FIG. 3C represents data from western blots on whole DRG of RiboTag-Nav1.8-Cre mice after immunoprecipitation for HA. FIG. 3D represents data from immunohistochemistry on DRG slices for HA in sensory neurons (in green—HA, blue—DAPI/nuclei). FIG. 3E represents actin normalized mRNA levels of positive (Nav1.8) and negative (GFAP, PV) markers of Nav1.8 expressing neurons in whole DRG (WT), input, and IP samples. FIG. 3F represents actin normalized mRNA levels of ER stress markers, in sensory neurons treated with LXR agonist and palmitate. Sensory neuron specific mRNA was isolated by immunoprecipitation from whole DRG organotypic cultures treated with agonist and palmitate (n=3 individual experiments). (Values are Mean±S.E.M, with vehicle group defined as 100%; *p<0.05 with vehicle; **p<0.05 with vehicle+palmitate). […] The mRNA levels of ER stress markers undergoing translation were analyzed in Nav1.8 expressing neurons. […]

Assay [7] concerns 80-week old mice presenting signs of neuropathy. The experiment in a line: Intra epidermal nerve fibers density in paw skin of 80-week old mice with neuropathy. In kind it is in vivo. The following applies: gavaged twice a week for three months, skin of paws, FIG. 6. The text has this:
FIG. 6 is a bar chart evidencing that treatments with a mixed solution of butyrate and an LXR agonist (GW3965) trigger an enhanced regeneration mechanism that improves neuropathy.
In an additional investigation, 80-week old mice presenting signs of neuropathy (loss of fibers in the skin) were gavaged twice a week during a three-month period with a GW3965 solution or a mixed solution of GW3965 and butyrate using the indicated concentrations reported in FIG. 6. After three months, the mice were euthanized and the intra epidermal nerve fibers density was counted in the skin of their paws.

On to `O=C(O)Cc1cccc(OCCCN(Cc2cccc(C(F)(F)F)c2Cl)CC(c2ccccc2)c2ccccc2)c1` [GW3965], for which, in assay [1], the “LXR canonical gene expression, ATP-binding cassette transporter (ABCA1)” value is “significant increase”. The “mRNA levels of ER stress markers” value in assay [2] is listed as “decreased”. In addition, the “lpcat3 mRNA” value in assay [3] is reported as “significant increase”. The “progression of WD-induced allodynia (von Frey sensitivity to innocuous stimuli)” value in assay [4] is given as “delay in the progression of WD-induced allodynia”. The “expression of ER stress markers in DRG” value in assay [5] is on record as “decreased expression of ER stress markers”. Also, the “CHOP, ATF4, and sXBP1 mRNA levels increased by palmitate” value in assay [6] was “blunted”. Besides, in assay [7], the “number of nerves (intra epidermal nerve fibers density)” value was “increased the number the nerves”.
